Activity calls are given as the source filed them. No cut-off for these calls is given here.

Experiment [1] concerns Fusarium odoratissimum. Description: Growth inhibition of Fusarium oxysporum f. sp. cubense race 4 isolate CAV 031 at 1 ug/ml after 7 days. In kind it is functional, organism-based.
In experiment [2] the test system is Fusarium odoratissimum. Description: Growth inhibition of Fusarium oxysporum f. sp. cubense race 4 isolate CAV 031 at 10 ug/ml after 7 days. In kind it is functional, organism-based.
The test system of experiment [3] is Fusarium odoratissimum. Put plainly: Growth inhibition of Fusarium oxysporum f. sp. cubense race 4 isolate CAV 031 at 50 ug/ml after 7 days. The class given is functional, organism-based.
The test system of experiment [4] is Fusarium odoratissimum. Put plainly: Growth inhibition of Fusarium oxysporum f. sp. cubense race 4 isolate CAV 031 at 100 ug/ml after 7 days. In kind it is functional, organism-based.
In experiment [5] the test system is Fusarium odoratissimum. Put plainly: Antifungal activity against Fusarium oxysporum f. sp. cubense race 4 at 10 times recommended dose incubated with 10^2 spore/ml for 5 min measured after 4 days. In kind it is functional, organism-based.
In experiment [6] the test system is Fusarium odoratissimum. Description: Antifungal activity against Fusarium oxysporum f. sp. cubense race 4 incubated with 10^2 spore/ml for 5 min measured after 4 days. The class given is functional, organism-based.
In experiment [7] the test system is Fusarium odoratissimum. Description: Antifungal activity against Fusarium oxysporum f. sp. cubense race 4 incubated with 10^2 spore/ml for 5 to 30 min measured after 4 days. In kind it is functional, organism-based.
The subject of experiment [8] is Fusarium odoratissimum. Put plainly: Antifungal activity against Fusarium oxysporum f. sp. cubense race 4 at 0.01 times recommended dose incubated with 10^2 spore/ml for 5 min measured after 4 days. The class given is functional, organism-based.
Experiment [9] deals with Fusarium odoratissimum. Description: Antifungal activity against Fusarium oxysporum f. sp. cubense race 4 infected in Cavendish banana plant assessed as reduction in disease severity at 25 ug a.i./ml applied as soil drench treatment immediately after planting measured after 7 weeks in greenhouse conditions. More on the design: scale not given: the % may be the effect or the level left. The class given is functional.

The test system of experiment [10] is Fusarium odoratissimum. Put plainly: Growth inhibition of Fusarium oxysporum f. sp. cubense race 4 isolate CAV 086 at 5 ug/ml after 7 days. The class given is functional, organism-based.
The test system of experiment [11] is Fusarium odoratissimum. Description: Antifungal activity against Fusarium oxysporum f. sp. cubense race 4 infected in Cavendish banana plant assessed as reduction in disease severity at 25 ug a.i./ml applied as soil drench treatment 1 week after planting measured after 7 weeks in greenhouse conditions. The class given is functional. Details: scale not given: the % may be the effect or the level left.

In experiment [12] the test system is Fusarium odoratissimum. Put plainly: Antifungal activity against Fusarium oxysporum f. sp. cubense race 4 infected in Cavendish banana plant assessed as reduction in disease severity at 25 ug a.i./ml applied as root dip treatment for 10 min measured after 7 weeks in greenhouse conditions. The class given is functional. Details: scale not given: the % may be the effect or the level left.

Experiment [13] has as its system Fusarium odoratissimum. Put plainly: Growth inhibition of Fusarium oxysporum f. sp. cubense race 4 isolate CAV 086 at 1 ug/ml after 7 days. In kind it is functional, organism-based.
Experiment [14] concerns Fusarium oxysporum. Description: Antifungal activity against Fusarium oxysporum infected tomato plant grown in hydroponic system applied as curative treatment relative to control. In kind it is functional.
The subject of experiment [15] is Fusarium odoratissimum. Description: Growth inhibition of Fusarium oxysporum f. sp. cubense race 4 isolate CAV 086 at 10 ug/ml after 7 days. The class given is functional, organism-based.
Experiment [16] relates to Fusarium odoratissimum. Put plainly: Growth inhibition of Fusarium oxysporum f. sp. cubense race 4 isolate CAV 086 at 50 ug/ml after 7 days. In kind it is functional, organism-based.
Experiment [17] concerns Fusarium oxysporum. Put plainly: Antifungal activity against Fusarium oxysporum infected tomato plant grown in hydroponic system applied as preventive treatment relative to control. The class given is functional.

For `CO/C=C(/C(=O)OC)c1ccccc1Oc1cc(Oc2ccccc2C#N)ncn1`, the “growth inhibition (GI)” value with Fusarium odoratissimum [1], in the experiment on Fusarium odoratissimum [2], with Fusarium odoratissimum [3] and in the experiment with Fusarium odoratissimum [4] was “inactive” each time.
Consider `CO/N=C(/C(=O)OC)c1ccccc1COc1ccccc1C`, for which the “growth inhibition (GI)” value with Fusarium odoratissimum [1], in the experiment on Fusarium odoratissimum [2], in the experiment on Fusarium odoratissimum [3] and in the experiment on Fusarium odoratissimum [4] was “inactive” each time.
On to `OCl`, for which the outcome with Fusarium odoratissimum [5] and in the experiment on Fusarium odoratissimum [7] was Active. For the same compound, the Activity result with Fusarium odoratissimum [6] was “Dose-dependent effect”. The outcome with Fusarium odoratissimum [8] was inactive.
As for `CCCCNC(=O)n1c(NC(=O)OC)nc2ccccc21` [BENOMYL], the Activity in the experiment with Fusarium odoratissimum [9] is listed as 22.2%; in the experiment on Fusarium odoratissimum [11], 72.2%; with Fusarium odoratissimum [12], 66.7%. Also, the “growth inhibition (GI)” value in the experiment with Fusarium odoratissimum [10], in the experiment with Fusarium odoratissimum [2], in the experiment on Fusarium odoratissimum [3] and in the experiment with Fusarium odoratissimum [4] was “Active” in each case.
Take `CCCN(CCOc1c(Cl)cc(Cl)cc1Cl)C(=O)n1ccnc1` [PROCHLORAZ]: the result in the experiment on Fusarium odoratissimum [5] was Active. The “growth inhibition (GI)” value in the experiment on Fusarium odoratissimum [1], with Fusarium odoratissimum [13], in the experiment on Fusarium odoratissimum [2], in the experiment with Fusarium odoratissimum [3], in the experiment with Fusarium odoratissimum [15] and in the experiment with Fusarium odoratissimum [16] was “Active” each time. In addition, the “growth inhibition (GI)” value in the experiment with Fusarium odoratissimum [4] was “Active”. Moreover, the Activity in the experiment on Fusarium odoratissimum [9] is 38.9%; with Fusarium odoratissimum [6], “Dose-dependent effect”; in the experiment with Fusarium odoratissimum [11], 50%; in the experiment with Fusarium oxysporum [14], 34.4%; in the experiment with Fusarium oxysporum [17] it was 69.9%; with Fusarium odoratissimum [12] it was 77.8%.
As to `CCCC1COC(Cn2cncn2)(c2ccc(Cl)cc2Cl)O1` (stereo not drawn) [PROPICONAZOLE], the Activity in the experiment with Fusarium odoratissimum [9] was 44.4%; with Fusarium odoratissimum [11], 52.8%; in the experiment with Fusarium odoratissimum [12], 75%. Also, the “growth inhibition (GI)” value in the experiment with Fusarium odoratissimum [10] and with Fusarium odoratissimum [4] was “Active” in each case.

The values above are taken from ChEMBL document CHEMBL3046113, “Evaluation of fungicides and sterilants for potential application in the management of Fusarium wilt of banana” (Crop Prot, 2007).
